Assay results published in US8598348B2, “Purification of 1-[2-(2,4-dimethylphenylsulfanyl)phenyl]piperazine” (H. Lundbeck A/S, priority 2009, dated 2013).
Structures can show the parent of a compound that is named as a salt.

Columns and labels:
[1] = Water absorption when exposed to high relative humidity; assay type: physicochemical
Solubility in water = assay type: physicochemical
[2] = judged from DSC and solubility data; as shown in WO 2007/144005; cited from earlier work

SMILES: Cc1ccc(Sc2ccccc2N2CCNCC2)c(C)c1 [beta form of the hydrobromide, 1-[2-(2,4-dimethylphenylsulfanyl)phenyl]piperazine-HBr]
- absorption of water when exposed to high relative humidity [1]: about 0.6%
- solubility (Solubility in water): 1200 µg/mL
- stability among the α-, β- and γ-forms of the HBr salt [2]: most stable form
